In publication PMC6811436, “Epithelial Lining Fluid and Plasma Concentrations of Dalbavancin in Healthy Adults after a Single 1,500-Milligram Infusion” (Antimicrobial Agents and Chemotherapy, 2019):
Like-named read-outs stand apart in the source and are kept apart here.

Experiments:
S. pneumoniae [1] = conditions: in vivo, iv
[2] = cited from earlier work
Procedure: This study evaluated the PK of dalbavancin in ELF and plasma up to 7 days after a single 1,500-mg i.v. infusion in healthy Japanese subjects. Dalbavancin was detectable in bronchial ELF at the earliest time point (4 h postdose) and sustained for ≥7 days, exceeding the MIC90s of S. pneumoniae and S. aureus. While drug exposure at the site of infection is essential for antibacterial activity, the PK/PD parameter associated with efficacy for dalbavancin is AUC/MIC ([3]).

[3] = Safety and tolerability in the phase 1 study; format: in vivo, human; conditions: 37 subjects; 1,500 mg i.v. single dose
Excerpt: Key inclusion criteria were age between 20 and 55 years and body mass index (BMI) between 18 and 30 kg/m^2. […] Subjects were assigned to cohorts on a first-come, first-served basis. Safety data were collected at each visit (screening [days −28 to −3], baseline [days −3 to −1], and days 1, 2, 4, 6, and 8 to 9) and included adverse events, physical examination, chemistry and hematology assessments (screening/baseline, day 8 to 9), and chest X ray (at screening, to exclude subjects with lung disease, and on the day after BMS sampling).

[4] = previously established, cited from earlier work
Procedure: The bioanalysis was conducted to meet current regulated bioanalysis requirements. The sensitivity, accuracy, precision, recovery, carryover, and matrix effect were established, and study samples were analyzed within established appropriate stabilities to cover sample collection, storage, and analysis. Dalbavancin plasma sample stability has previously been established for 368 days at −20 °C and for 56 days at −70°C. Stability of dalbavancin in HUF was established for 46 days at −70 °C. Plasma (370 samples) and ELF (35 samples; samples for each ELF time point collected on 3 BMS probes and analy ...

[5] = Epithelial lining fluid (ELF) concentrations by bronchial microsampling after a single 1,500-mg infusion; conditions: for Dalbavancin concn, ELF (median) / Dalbavancin concn, ELF (mean [SD]): 1,500 mg i.v., LC-MS/MS
Procedure: (§1) A phase 1 open-label, single-dose, safety, tolerability, and PK study of ELF and plasma concentrations of dalbavancin was conducted between May and June 2015 at the SOUSEIKAI Hakata Clinic in Fukuoka, Japan. The study was approved by the local institutional review board at the site. Thirty-seven healthy, nonsmoking Japanese adult subjects received a 1,500-mg dose of dalbavancin infused for 30 ± 2 min. Thirty-five subjects (5 enrolled in each of 7 cohorts) had bronchoscopy with bronchial microsampling of ELF using a microsampling probe (BC-401C; Olympus, Tokyo, Japan), as described previously ([9]), at one of seven time points from the start of dalbavancin infusion (4, 8, 12, 24, 72, 120, and 168 h). Topical lidocaine viscous was used for gargling; 4% lidocaine liquid by aerosol spray was then used for topical anesthesia in the larynx, followed by bronchoscopy, with additional 1% or 2% lidocaine applied to the vocal cords and lower airway as needed. Sedation was allowed per local standard of care. In the BMS procedure, microsampling catheter sponge probes were inserted carefully through a fiberoptic bronchoscope into the peripheral airways of the right lower lobe, with the inner probe gently in contact with the bronchial lumen for 15 s. Three unique probe samples were obtained from each subject for a specific time point. The tips of the probe samples were cut at 3 cm from the tip of each probe, and each time point sample consisted of three probes placed in a vial for analysis. Ten blood PK samples were collected into K2EDTA vacutainers from all 37 subjects up to 168 h postdose (0.5, 1, 2, 4, 8, 12, 24, 72, 120, and 168 h), and plasma was harvested for sample bioanalysis.
(§2) The dalbavancin ELF and plasma concentrations were measured using a validated liquid chromatography-tandem mass spectrometry (LC-MS/MS) method in each matrix ([14]). The bioanalytical methods were validated at Tandem Labs (West Trenton, NJ) under sponsor oversight. (Covance is the brand of Covance, Inc., and used by Tandem Labs, Inc., and NWT, Inc., wholly owned subsidiaries of Laboratory Corporation of America Holdings.) Because ELF can only be collected via invasive techniques, validation of the method in ELF was conducted in a surrogate matrix of human serum ultrafiltrate (HUF).
(§3) The plasma LC-MS/MS method was validated on an API 4000 (Sciex, Framingham, MA) using plasma protein precipitation for sample cleanup before injection for detection of the analytes of interest. Detection was carried out using positive-mode electrospray with selected reaction monitoring for the mass spectrometer operation mode. In plasma, the calibration range was validated from 0.500 to 500 μg/ml using 50 μl plasma for each analysis, with a lower limit of quantification (LLOQ) of 0.500 μg/ml. The ELF LC-MS/MS method was validated on an API 5000 (Sciex) using dilution for sample preparation before analysis. For ELF, the calibration range was validated from 0.010 to 2.00 μg/ml using 75 μl sample volume (study sample[s] consisted of ELF; and standards, blanks, and quality controls consisted of HUF in extraction solvent of 40:60 acetonitrile:water), with an LLOQ of 0.010 μg/ml. Detection was carried out using positive-mode electrospray with selected reaction monitoring for the mass spectrometer operation mode. A structural analog of dalbavancin, diethylamide of dalbavancin, was used as an internal standard in both methods in support of quantitation of dalbavancin.
(§4) Statistical analyses of safety parameters were performed using version 9.3 of SAS (SAS Institute, Inc., Cary, NC) on a LINUX operating system. Noncompartmental PK parameters based on plasma and ELF dalbavancin concentrations were determined for individual subjects, and descriptive statistics were performed using the software program Phoenix WinNonlin (version 6.2; Pharsight Corporation, Cary, NC). Plasma concentrations below the LLOQ were treated as 0 for all PK calculations.

[6] = cited from earlier work; remark: listed apart in the source
[7] = Plasma pharmacokinetics after a single 1,500-mg i.v. dalbavancin infusion, phase 1 study; conditions: for Dalbavancin concn, calculated unbound plasma (median): 1,500 mg i.v.
Procedure: as §1, §2, §3, §4

S. aureus [8] = conditions: in vivo, iv
S. aureus [9] = test system: S. aureus; parameters: method as in earlier work; conditions: cited from earlier work
Excerpt: (§5) Dalbavancin is 93% protein bound in plasma ([1]), and the pharmacokinetic/pharmacodynamic (PK/PD) parameter best associated with efficacy is area under the concentratio ...

S. pneumoniae [10] = test system: S. pneumoniae; parameters: method as in earlier work; conditions: cited from earlier work
Excerpt: as §5

MRSA = conditions: one patient switched from vancomycin to dalbavancin 1,500 mg; cited from earlier work
Excerpt: (§6) Dalbavancin has been used off label for treatment of MRSA pneumonia in a patient treated with vancomycin who ...

[11] = test system: penicillin-resistant S. pneumoniae; conditions: single dose, rats with lobar pneumonia; cited from earlier work
Excerpt: as §6

S. pneumoniae [12] = conditions: single dose; immunocompetent and neutropenic rats; penicillin-susceptible and penicillin-resistant S. pneumoniae; cited from earlier work
Excerpt: as §6

[13] = cited from earlier work; remark: listed apart in the source
Excerpt: as §5

[14] = 8 healthy subjects, 1,500 mg dalbavancin, ref Allergan, data on file
[15] = 1,500 mg i.v. single dose, bronchial microsampling
[16] = 8 h, bronchial microsampling, 5 subjects
[17] = 12 h, bronchial microsampling, 5 subjects
[18] = 24 h, bronchial microsampling, 5 subjects
[19] = 72 h, bronchial microsampling, 5 subjects
[20] = 120 h, bronchial microsampling, 5 subjects

SMILES: CN[C@H]1C(=O)N[C@@H]2Cc3ccc(cc3)Oc3cc4cc(c3O[C@@H]3O[C@H](C(=O)O)[C@@H](O)[C@H](O)[C@H]3NC(=O)CCCCCCCCC(C)C)Oc3ccc(cc3Cl)[C@@H](O)[C@@H]3NC(=O)[C@H](NC(=O)[C@@H]4NC(=O)[C@@H](NC2=O)c2cc(cc(O)c2Cl)Oc2cc1ccc2O)c1ccc(O)c(c1)-c1c(O[C@H]2O[C@H](CO)[C@@H](O)[C@H](O)[C@@H]2O)cc(O)cc1[C@@H](C(=O)NCCCN(C)C)NC3=O [Dalbavancin]
- time ELF levels exceeded the MIC90 of S. pneumoniae (S. pneumoniae [1]): ≥ 7 days
- plasma AUC0–24, mean (SD) [2, 14]: 5,202.55 (620.05) μg · h/ml
- plasma Cmax, mean (SD) [2, 14]: 467.63 (55.73) μg/ml
- mean Tmax ([2]; 8 healthy subjects, 1,500 mg, range 0.5 to 0.5, ref Allergan, data on file): 30 min
- median Tmax ([2]; 49 subjects, 1,500 mg dalbavancin): 37.2 min
- clinical laboratory parameters [3]: no observed safety concerns in clinical laboratory parameters
- serious AEs [3]: no serious AEs
- severity of treatment-emergent AEs [3]: all were mild
- subjects with at least one treatment-emergent adverse event (AE) [3]: Five
- treatment-emergent AEs leading to withdrawal from study-drug therapy [3]: no treatment-emergent AEs leading to withdrawal from study-drug therapy
- plasma sample stability established for ([4]; −20 °C): 368 days
- plasma sample stability established for ([4]; −70°C): 56 days
- ELF AUC0–168 (median) [5, 15]: 527 µg·h/mL
- ELF Cmax (median) [5, 15]: 4 µg/mL
- ELF Tmax (median) [5, 15]: 72 h
- Dalbavancin concn, ELF (median) ([5]; 4 h, bronchial microsampling, 5 subjects per time point): 1.9 µg/mL
- Dalbavancin concn, ELF (mean [SD]) ([5]; 4 h, bronchial microsampling, 5 subjects): 1.9 (1.0) μg/ml
- Dalbavancin concn, ELF (mean [SD]) [5, 16]: 3.1 (1.9) μg/ml
- Dalbavancin concn, ELF (median) [5, 16]: 2.2 µg/mL
- Dalbavancin concn, ELF (mean [SD]) [5, 17]: 3.6 (2.1) μg/ml
- Dalbavancin concn, ELF (median) [5, 17]: 2.8 µg/mL
- Dalbavancin concn, ELF (mean [SD]) [5, 18]: 2.7 (0.5) μg/ml
- Dalbavancin concn, ELF (median) [5, 18]: 2.6 µg/mL
- Dalbavancin concn, ELF (mean [SD]) [5, 19]: 7.3 (8.2) μg/ml
- Dalbavancin concn, ELF (median) [5, 19]: 4.2 µg/mL
- Dalbavancin concn, ELF (mean [SD]) [5, 20]: 11.9 (20.1) μg/ml
- Dalbavancin concn, ELF (median) [5, 20]: 3.3 µg/mL
- Dalbavancin concn, ELF (median) ([5]; 168 h (7 days), bronchial microsampling, 5 subjects): 2.1 µg/mL
- Dalbavancin concn, ELF (mean [SD]) ([5]; 168 h, bronchial microsampling, 5 subjects): 2.0 (0.6) μg/ml
- penetration of dalbavancin into ELF ([5]; ratio of AUC in ELF to unbound AUC in plasma (7% of AUC0–168)): 36%
- solubility in saline [6]: not soluble in saline
- plasma AUC0–168, mean (SD) ([7]; 1,500 mg i.v. single dose, noncompartmental): 21,087 (2,282) μg · h/ml
- Dalbavancin concn, calculated unbound plasma (median) ([7]; 4 h, calculated with 93% protein binding (unbound fraction 7%)): 20 µg/mL
- Dalbavancin concn, calculated unbound plasma (median) ([7]; 8 h, calculated with unbound fraction 7%): 16 µg/mL
- Dalbavancin concn, calculated unbound plasma (median) ([7]; 12 h, calculated with unbound fraction 7%): 14 µg/mL
- Dalbavancin concn, calculated unbound plasma (median) ([7]; 24 h, calculated with unbound fraction 7%): 12 µg/mL
- Dalbavancin concn, calculated unbound plasma (median) ([7]; 72 h, calculated with unbound fraction 7%): 8 µg/mL
- Dalbavancin concn, calculated unbound plasma (median) ([7]; 120 h, calculated with unbound fraction 7%): 7 µg/mL
- Dalbavancin concn, calculated unbound plasma (median) ([7]; 168 h, calculated with unbound fraction 7%): 6 µg/mL
- Tmax ([7]; human, in vivo, iv): 30 min
- clearance ([7]; human, in vivo, iv): 0.683 mL/min
- level at 0.5 h ([7]; human, in vivo, iv, 1500 mg): 442 µg/mL
- level at 1 h ([7]; human, in vivo, iv, 1500 mg): 397 µg/mL
- level at 2 h ([7]; human, in vivo, iv, 1500 mg): 331 µg/mL
- level at 8 h ([7]; human, in vivo, iv, 1500 mg): 222 µg/mL
- level at 12 h ([7]; human, in vivo, iv, 1500 mg): 194 µg/mL
- level at 24 h ([7]; human, in vivo, iv, 1500 mg): 169 µg/mL
- level at 72 h ([7]; human, in vivo, iv, 1500 mg): 120 µg/mL
- level at 120 h ([7]; human, in vivo, iv, 1500 mg): 94 µg/mL
- time ELF levels exceeded the MIC90 of S. aureus (S. aureus [8]): ≥ 7 days
- effect of surfactant on in vitro activity (S. aureus [9]): does not appear to be appreciably affected by the presence of surfactant
- effect of surfactant on in vitro activity (S. pneumoniae [10]): does not appear to be appreciably affected by the presence of surfactant
- MRSA in sputum cultures (MRSA): subsequent clearance of MRSA in sputum cultures
- lung bacterial load [11]: significant reduction in the lung bacterial load
- bacterial counts in the lungs (S. pneumoniae [12]): reduction of bacterial counts observed in the lungs
- protein bound in plasma [13]: 93%
- terminal half-life [13]: 14.4 days
- time plasma concentrations maintained above the MIC90 for most Gram-positive pathogens, including S. aureus ([13]; single dose of 1,500 mg i.v.): at least 2 weeks
